Laboratory results: paper doi:10.1101/2025.10.16.682859v2 (biorxiv, 2025)

Columns and labels:
[1] = target: T1, human argininosuccinate synthetase (ASS1) (Homo sapiens, UniProt P00966); experiment: differential scanning fluorimetry; type: binding; details: 5 mM ATP, 10 mM MgCl2, pH 8.0
T1 sequence (P00966 1-412): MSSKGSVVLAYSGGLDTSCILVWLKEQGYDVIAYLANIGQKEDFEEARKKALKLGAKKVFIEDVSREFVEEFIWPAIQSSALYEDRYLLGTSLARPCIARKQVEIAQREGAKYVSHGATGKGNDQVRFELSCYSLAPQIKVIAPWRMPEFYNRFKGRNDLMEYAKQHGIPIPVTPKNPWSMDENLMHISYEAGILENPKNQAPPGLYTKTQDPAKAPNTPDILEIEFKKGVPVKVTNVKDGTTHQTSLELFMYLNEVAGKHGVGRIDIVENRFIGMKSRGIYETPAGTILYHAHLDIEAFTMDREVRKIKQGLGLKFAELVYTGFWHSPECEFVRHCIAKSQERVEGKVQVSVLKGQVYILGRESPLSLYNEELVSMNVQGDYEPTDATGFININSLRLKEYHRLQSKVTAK

[2] = target: T2, human asparagine synthetase (ASNS) (Homo sapiens, UniProt P08243); experiment: HPLC end-point assay of L-asparagine formation; type: biochemical
T2 sequence (P08243 2-561): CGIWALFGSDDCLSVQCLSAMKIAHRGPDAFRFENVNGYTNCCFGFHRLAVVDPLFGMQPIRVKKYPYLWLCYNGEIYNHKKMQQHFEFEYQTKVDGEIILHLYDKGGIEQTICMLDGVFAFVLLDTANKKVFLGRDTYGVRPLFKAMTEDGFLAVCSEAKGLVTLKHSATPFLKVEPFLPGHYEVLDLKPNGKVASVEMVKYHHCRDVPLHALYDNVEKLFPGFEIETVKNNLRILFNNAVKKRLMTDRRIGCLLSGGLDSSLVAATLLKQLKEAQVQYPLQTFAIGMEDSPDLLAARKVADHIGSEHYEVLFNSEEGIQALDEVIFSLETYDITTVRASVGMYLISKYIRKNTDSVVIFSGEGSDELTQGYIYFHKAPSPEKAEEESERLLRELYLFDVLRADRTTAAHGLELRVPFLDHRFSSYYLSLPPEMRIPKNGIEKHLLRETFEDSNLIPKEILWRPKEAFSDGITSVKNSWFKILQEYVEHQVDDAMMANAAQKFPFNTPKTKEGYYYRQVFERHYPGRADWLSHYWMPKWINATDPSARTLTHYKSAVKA

[3] = target: T3, ASNS (endogenous, HEK-293A cells) (Homo sapiens, UniProt P08243); experiment: cellular thermal shift, immunoblot; type: cell-based; details: cells treated with 50 nM for 1 h, lysate heated 25-90 °C
T3 sequence (P08243 2-561): T2 sequence (P08243 2-561)

Tm [1]	IC50 [2]	Tm [3]	SMILES
47 to 52 °C	–	–	Nc1ncnc2c1ncn2[C@@H]1O[C@H](COP(=O)(O)OP(=O)(O)OP(=O)(O)O)[C@@H](O)[C@H]1O [ATP]
–	500 ± 200 nM	45 to 54 °C	CC[C@H](N)C(=O)N1C[C@@H](c2ccc(F)cc2)[C@H](O)[C@@H]1C(=O)NC(c1ccccc1)c1ccccc1 [compound 17, ASX-173]
